From ChEMBL document CHEMBL2440076, “New triarylpyrazoles as broad-spectrum anticancer agents: design, synthesis, and biological evaluation” (Eur J Med Chem, 2013)

Assays:
Assay type in all cases: functional
[1] = tested on: OVCAR-4; test: Growth inhibition of human OVCAR4 cells assessed as cell growth at 5X10'-6 M after 48 hrs by sulforhodamine B assay; conditions: OVCAR-4, 48 h, read-out: Activity
[2] = tested on: CCRF-CEM; test: Growth inhibition of human CCRF-CEM cells assessed as cell growth at 3X10'-5 M after 48 hrs by sulforhodamine B assay; conditions: read-out: Activity
[3] = tested on: MDA-MB-435; test: Growth inhibition of human MDA-MB-435 cells assessed as cell growth at 3X10'-5 M after 48 hrs by sulforhodamine B assay; conditions: MDA-MB-435, 48 h, read-out: Activity
[4] = tested on: MDA-MB-231; test: Growth inhibition of human MDA-MB-231 cells assessed as cell growth at 3X10'-5 M after 48 hrs by sulforhodamine B assay; conditions: MDA-MB-231, 48 h, read-out: Activity
[5] = tested on: NCI-H322M; test: Growth inhibition of human NCI-H322M cells assessed as cell growth at 3X10'-8 M after 48 hrs by sulforhodamine B assay; conditions: read-out: Activity
[6] = tested on: UACC-62; test: Growth inhibition of human UACC62 cells assessed as cell growth at 3X10'-5 M after 48 hrs by sulforhodamine B assay; conditions: UACC-62, 48 h, read-out: Activity
[7] = tested on: A549; test: Growth inhibition of human A549/ATCC cells assessed as cell growth at 3X10'-8 M after 48 hrs by sulforhodamine B assay; conditions: A549, 48 h, read-out: Activity
[8] = tested on: KM12; test: Growth inhibition of human KM12 cells assessed as cell growth at 3X10'-9 M after 48 hrs by sulforhodamine B assay; conditions: KM12, 48 h, read-out: Activity
[9] = tested on: SR; test: Growth inhibition of human SR cells assessed as cell growth at 3X10'-8 M after 48 hrs by sulforhodamine B assay; conditions: read-out: Activity
[10] = tested on: OVCAR-5; test: Growth inhibition of human OVCAR5 cells assessed as cell growth at 3X10'-8 M after 48 hrs by sulforhodamine B assay; conditions: OVCAR-5, 48 h, read-out: Activity
[11] = tested on: TK-10; test: Growth inhibition of human TK10 cells assessed as cell growth at 3X10'-6 M after 48 hrs by sulforhodamine B assay; conditions: TK-10, 48 h, read-out: Activity
[12] = tested on: OVCAR-4; test: Growth inhibition of human OVCAR4 cells assessed as cell growth at 3X10'-7 M after 48 hrs by sulforhodamine B assay; conditions: OVCAR-4, 48 h, read-out: Activity
[13] = tested on: ACHN; test: Growth inhibition of human ACHN cells assessed as cell growth at 3X10'-9 M after 48 hrs by sulforhodamine B assay; conditions: read-out: Activity
[14] = tested on: K562; test: Growth inhibition of human K562 cells assessed as cell growth at 3X10'-9 M after 48 hrs by sulforhodamine B assay; conditions: K562, 48 h, read-out: Activity
[15] = tested on: T47D; test: Growth inhibition of human T47D cells assessed as cell growth at 3X10'-9 M after 48 hrs by sulforhodamine B assay; conditions: read-out: Activity
[16] = tested on: BT-549; test: Growth inhibition of human BT549 cells assessed as cell growth at 3X10'-7 M after 48 hrs by sulforhodamine B assay; conditions: BT-549, 48 h, read-out: Activity
[17] = tested on: COLO 205; test: Growth inhibition of human COLO205 cells assessed as cell growth at 3X10'-6 M after 48 hrs by sulforhodamine B assay; conditions: COLO 205, 48 h, read-out: Activity
[18] = tested on: SK-MEL-2; test: Growth inhibition of human SK-MEL-2 cells assessed as cell growth at 3X10'-7 M after 48 hrs by sulforhodamine B assay; conditions: SK-MEL-2, 48 h, read-out: Activity
[19] = tested on: NCI-H460; test: Growth inhibition of human NCI-H460 cells assessed as cell growth at 3X10'-6 M after 48 hrs by sulforhodamine B assay; conditions: NCI-H460, 48 h, read-out: Activity
[20] = tested on: TK-10; test: Growth inhibition of human TK10 cells assessed as cell growth at 3X10'-8 M after 48 hrs by sulforhodamine B assay; conditions: TK-10, 48 h, read-out: Activity
[21] = tested on: HT-29; test: Growth inhibition of human HT-29 cells assessed as cell growth at 3X10'-6 M after 48 hrs by sulforhodamine B assay; conditions: HT-29, 48 h, read-out: Activity
[22] = tested on: SF-539; test: Growth inhibition of human SF539 cells assessed as cell growth at 3X10'-8 M after 48 hrs by sulforhodamine B assay; conditions: SF-539, 48 h, read-out: Activity
[23] = tested on: SK-OV-3; test: Growth inhibition of human SKOV3 cells assessed as cell growth at 3X10'-9 M after 48 hrs by sulforhodamine B assay; conditions: SK-OV-3, 48 h, read-out: Activity
[24] = tested on: SK-MEL-5; test: Growth inhibition of human SK-MEL-5 cells assessed as cell growth at 3X10'-5 M after 48 hrs by sulforhodamine B assay; conditions: SK-MEL-5, 48 h, read-out: Activity
[25] = tested on: SK-MEL-28; test: Growth inhibition of human SK-MEL-28 cells assessed as cell growth at 3X10'-6 M after 48 hrs by sulforhodamine B assay; conditions: SK-MEL-28, 48 h, read-out: Activity
[26] = tested on: M14; test: Growth inhibition of human M14 cells assessed as cell growth at 3X10'-5 M after 48 hrs by sulforhodamine B assay; conditions: M14, 48 h, read-out: Activity
[27] = tested on: MCF7; test: Growth inhibition of human MCF7 cells assessed as cell growth at 3X10'-5 M after 48 hrs by sulforhodamine B assay; conditions: MCF7, 48 h, read-out: Activity
[28] = tested on: RPMI-8226; test: Growth inhibition of human RPMI8226 cells assessed as cell growth at 3X10'-9 M after 48 hrs by sulforhodamine B assay; conditions: RPMI-8226, 48 h, read-out: Activity
[29] = tested on: KM12; test: Growth inhibition of human KM12 cells assessed as cell growth at 3X10'-6 M after 48 hrs by sulforhodamine B assay; conditions: KM12, 48 h, read-out: Activity
[30] = tested on: MDA-MB-231; test: Growth inhibition of human MDA-MB-231 cells assessed as cell growth at 3X10'-7 M after 48 hrs by sulforhodamine B assay; conditions: MDA-MB-231, 48 h, read-out: Activity
[31] = tested on: PC-3; test: Growth inhibition of human PC3 cells assessed as cell growth at 3X10'-9 M after 48 hrs by sulforhodamine B assay; conditions: PC-3, 48 h, read-out: Activity
[32] = tested on: UO-31; test: Growth inhibition of human UO31 cells assessed as cell growth at 3X10'-8 M after 48 hrs by sulforhodamine B assay; conditions: UO-31, 48 h, read-out: Activity
[33] = tested on: HCT-15; test: Growth inhibition of human HCT15 cells assessed as cell growth at 3X10'-8 M after 48 hrs by sulforhodamine B assay; conditions: HCT-15, 48 h, read-out: Activity
[34] = tested on: NCI-H322M; test: Growth inhibition of human NCI-H322M cells assessed as cell growth at 3X10'-5 M after 48 hrs by sulforhodamine B assay; conditions: read-out: Activity
[35] = tested on: SW-620; test: Growth inhibition of human SW620 cells assessed as cell growth at 3X10'-9 M after 48 hrs by sulforhodamine B assay; conditions: SW-620, 48 h, read-out: Activity
[36] = tested on: HOP-92; test: Growth inhibition of human HOP92 cells assessed as cell growth at 3X10'-6 M after 48 hrs by sulforhodamine B assay; conditions: HOP-92, 48 h, read-out: Activity

| Structure (SMILES) | growth at 5 µM [1] | growth at 30 µM [2] | growth at 30 µM [3] | growth at 30 µM [4] | growth at 0.03 µM [5] | growth at 30 µM [6] | growth at 0.03 µM [7] | growth at 0.003 µM [8] | growth at 0.03 µM [9] | growth at 0.03 µM [10] | growth at 3 µM [11] | growth at 0.3 µM [12] | growth at 0.003 µM [13] | growth at 0.003 µM [14] | growth at 0.003 µM [15] | growth at 0.3 µM [16] | growth at 3 µM [17] | growth at 0.3 µM [18] | growth at 3 µM [19] | growth at 0.03 µM [20] | also measured |
| --- | --- | --- | --- | --- | --- | --- | --- | --- | --- | --- | --- | --- | --- | --- | --- | --- | --- | --- | --- | --- | --- |
| COc1cc(-c2nn(-c3cccc(NC(=O)Nc4ccc(Cl)c(Cl)c4)c3)cc2-c2ccncc2)ccc1Cl | 6% | – | – | – | – | – | – | – | – | – | – | – | – | – | – | – | – | – | – | – | – |
| COc1cc(-c2nn(-c3cccc(NC(=O)Nc4cccc(C(F)(F)F)c4)c3)cc2-c2ccncc2)ccc1Cl | 6% | – | – | – | – | – | – | – | – | – | – | – | – | – | – | – | – | – | – | – | – |
| COc1cc(-c2nn(-c3cccc(NC(=O)Nc4cc(C(F)(F)F)cc(C(F)(F)F)c4)c3)cc2-c2ccncc2)ccc1Cl | 8% | – | – | – | – | – | – | – | – | – | – | – | – | – | – | – | – | – | – | – | – |
| COc1cc(-c2nn(-c3cccc(NC(=O)c4cccc(C(F)(F)F)c4)c3)cc2-c2ccncc2)ccc1Cl | 34% | – | – | – | – | – | – | – | – | – | – | – | – | – | – | – | – | – | – | – | – |
| COc1cc(-c2nn(-c3cccc(NC(=O)c4ccc(Cl)c(C(F)(F)F)c4)c3)cc2-c2ccncc2)ccc1Cl | – | 4% | -52% | 3% | 90% | 20% | 98% | 98% | 98% | 96% | 74% | 89% | 99% | 99% | 95% | 95% | 74% | 96% | 51% | 93% | growth at 3 µM [21]: 51%; growth at 0.03 µM [22]: 102%; growth at 0.003 µM [23]: 100%; growth at 30 µM [24]: -51%; growth at 3 µM [25]: 49%; growth at 30 µM [26]: 19%; growth at 30 µM [27]: 13%; growth at 0.003 µM [28]: 97%; growth at 3 µM [29]: 39%; growth at 0.3 µM [30]: 81%; growth at 0.003 µM [31]: 94%; growth at 0.03 µM [32]: 80%; growth at 0.03 µM [33]: 99%; growth at 30 µM [34]: 34%; growth at 0.003 µM [35]: 98% |
| O=C(Nc1cccc(-n2cc(-c3ccncc3)c(-c3ccc(Cl)c(O)c3)n2)c1)Nc1ccc(Cl)c(Cl)c1 | – | 5% | -38% | -22% | 100% | -53% | 100% | 97% | 98% | 96% | 31% | 105% | 103% | 100% | 97% | 106% | 61% | 111% | 2% | 103% | growth at 3 µM [36]: -26%; growth at 3 µM [21]: 60%; growth at 0.03 µM [22]: 95%; growth at 0.003 µM [23]: 96%; growth at 30 µM [24]: -95%; growth at 3 µM [25]: 25%; growth at 30 µM [26]: -28%; growth at 30 µM [27]: 2%; growth at 0.003 µM [28]: 103%; growth at 3 µM [29]: 9%; growth at 0.3 µM [30]: 94%; growth at 0.003 µM [31]: 103%; growth at 0.03 µM [32]: 92%; growth at 0.03 µM [33]: 103%; growth at 30 µM [34]: 11%; growth at 0.003 µM [35]: 100% |
| O=C(Nc1cccc(-n2cc(-c3ccncc3)c(-c3ccc(Cl)c(O)c3)n2)c1)Nc1ccc(Cl)c(C(F)(F)F)c1 | – | -14% | -54% | -60% | 105% | -83% | 94% | 101% | 104% | 85% | 24% | 94% | 97% | 99% | 102% | 104% | 42% | 108% | 4% | 103% | growth at 3 µM [36]: -30%; growth at 3 µM [21]: 21%; growth at 0.03 µM [22]: 94%; growth at 0.003 µM [23]: 102%; growth at 30 µM [24]: -97%; growth at 3 µM [25]: 1%; growth at 30 µM [26]: -39%; growth at 30 µM [27]: 2%; growth at 0.003 µM [28]: 96%; growth at 3 µM [29]: 2%; growth at 0.3 µM [30]: 69%; growth at 0.003 µM [31]: 93%; growth at 0.03 µM [32]: 95%; growth at 0.03 µM [33]: 95%; growth at 30 µM [34]: -58%; growth at 0.003 µM [35]: 100% |
| O=C(Nc1cccc(-n2cc(-c3ccncc3)c(-c3ccc(Cl)c(O)c3)n2)c1)c1ccc(N2CCOCC2)c(C(F)(F)F)c1 | 80% | – | – | – | – | – | – | – | – | – | – | – | – | – | – | – | – | – | – | – | – |
